Data: patent US20190307820A1, “COMPOSITIONS AND METHODS OF USING STAT1/3 INHIBITORS WITH ONCOLYTIC HERPES VIRUS” (priority 2016, published 2019)
pIC50: −log10 of the molar value.

Columns and labels:
[1] = tested on: CT26, LL2, U87, B16, 4T1 tumor cells; experiment: Cell survival (MTT) of tumor cell panel with nifuroxazide and/or virus; format: cell-based; conditions: nifuroxazide 0-100 μM
Source text: FIGS. 7A-7L show results of treatment of tumor cells with nifuroxazide and oHSV-1. FIG. 7A-7C show cell survival for tumor cells CT26, LL2 and U87 treated with nifuroxazide or HrR3 or KOS. FIG. 7D-7G show cell survival of tumor cells, U87, CT26, 4T1 and LL2, treated first with nifuroxazide and then HrR3 virus. FIG. 7H-7K show combination index (CI) values for tumor cells treated with varying doses of nifuroxazide or the viruses, HrR3 or KOS, or VG12TR, alone or in combination. FIG. 7L is a table presenting the dose reduction index for a combination of nifuroxazide and HrR3 virus.
In this example, the effect of nifuroxazide and oHSV-1 on tumor cells was evaluated. A variety of cancer cell types were treated with nifuroxazide (from 0-100 μM) or HrR3 virus at a MOI from 0 to 12.5 or KOS virus at a MOI from 1 to 12.5. Cell survival was measured.
Tumor cells were treated with nifuroxazide or medium. Following incubation, virus was added and further incubated for 72 (FIG. 7D) or 48 hrs (FIG. 7E-7G). Cytotoxicity was measured by an MTT assay. […]
If FIG. 7H-7K, cells were treated with varying doses of nifuroxazide or the indicated viruses (HrR3, KOS, or VG12TR) alone or in combination for 48 hrs (7J, 7K) or 72 hrs (7H) Cell viability was measured by a MTT assay and combination index (CI) values were calculated using Chour-Talalay analysis. […]

STAT1 = biological target: T1, STAT1 (Mus musculus, UniProt P42225); experiment: Western blot of STAT1 phosphorylation in CT26 cells; format: cell-based; conditions: 24 hours
T1 construct: Total protein was extracted after 24 hours and subjected to western blot analysis; endogenous in cells; host or cells: CT26 cells, with or without HrR3 infection
Procedure: (§1) FIG. 19A and FIG. 19B, U87 cells (A) or CT26 cells (B) were treated with the indicated concentrations of HrR3 or NF or a combination. Total protein was extracted after 24 hours and subjected to western blot analysis. Band intensity was measured using Image J software and normalized to β-actin. Samples were run in triplicate and data are as means±S.E. Statistically significant differences are indicated by P<0.05 or P<0.01. FIG. 19C, Mice subcutaneously bearing U87 tumors were intratumorally injected with a single dose of HrR3 virus (1×10^6 PFU) and/or peritoneally injected doses of NF as indicated. Tumors were harvested on day 10 post treatment and total protein was extracted from a mouse of each treatment group and subjected to western blot analysis in triplicate. Results are reported as means±S.E.
(§2) NF is a known inhibitor of STAT1 and STAT3. To evaluate the underlying molecular mechanism of the anti-tumour effect of the NF and oHSV-1 combination, the STAT1 and STAT3 status in U87 cells (FIG. 19A) and CT26 cells (FIG. 19B) cells was determined after an overnight treatment with NF and oncolytic viruses.

subcutaneous U87 tumor = experiment: Subcutaneous U87 tumor bearing mice, tumor size after nifuroxazide; format: in vivo; conditions: injected in the peritoneum, after 7 days treatment
Procedure: (§3) FIGS. 1A-1B are graphs that show an anti-tumor effect of nifuroxazide. (FIG. 1A) Cells were treated with indicated concentration of nifuroxazide for 72 hours. Cytotoxicity was measured by using MTT assay. (FIG. 1B) Subcutaneously U87 tumor bearing mice were peritoneally injected with indicated doses of nifuroxazide. Tumor size was measured using calipers at day 7 post nifuroxazide treatment.
(§4) In this example, the antitumor effect of nifuroxazide is evaluated in different tumor cells. Cells were treated with nifuroxazide for 72 hours (FIG. 1A). […] To verify the anti-tumor efficacy of nifuroxazide in vivo, animals with subcutaneous U87 tumor implants were injected in the peritoneum with vehicle, 1 mg/kg nifuroxazide and 50 mg/kg nifuroxazide. […] Tumor volume was reduced around 25% and 60% after 7 days treatment with 1 mg/kg nifuroxazide and 50 mg/kg nifuroxazide respectively (FIG. 1B).

STAT3 = biological target: T2, STAT3 (Homo sapiens, UniProt P40763); format: cell-based
T2 construct: Extracted protein was then subjected to western blot assay; endogenous in cells; host or cells: U87 cells, with or without HrR3 infection
Procedure: (FIG. 5A) U87 cells were treated with HrR3 at a MOI of 5 and indicated concentration of nifuroxazide for 6 hours. Extracted protein was then subjected to western blot assay. (FIG. 5B) U87 cells were treated with indicated concentration of HrR3 or nifuroxazide or stattic or in combination for 72 hours. Cytotoxicity was measured by MTT assay. (FIG. 5C) Relative mRNA level (2^−ΔΔCT) is shown. Data are presented as mean SD, *P<0.05 vs corresponding vehicle treatment.
as §1
Expression of key regulator of the Type1 interferon signaling, STAT1 and STAT3, was determined in nifuroxazide treated oHSV-1 infected U87 cells.
as §2

U373 cells = experiment: MTT cytotoxicity assay, U373 cells; format: cell-based; conditions: Homo sapiens, U373 MG, 72 hours, read-out: Inhibitory concentration 50% (IC50)
Procedure: as §3, §4
Cells were seeded in a 96-well plate at a density of 1×104 (U87). After overnight incubation, cells were treated with only vehicle or indicated MOI of virus or indicated concentration of drugs or reagents. After 2 to 3 days of treatment cell viability was measured by MTT assay (Sigma, Canada) according to the manufacturer's instruction. […] After overnight incubation with lysis buffer, cell viability was measured at 595 nm using a plate reader (Envision 2103 Multilabel reader, Perkin Elmer).

T2 sequence (P40763 whole entry): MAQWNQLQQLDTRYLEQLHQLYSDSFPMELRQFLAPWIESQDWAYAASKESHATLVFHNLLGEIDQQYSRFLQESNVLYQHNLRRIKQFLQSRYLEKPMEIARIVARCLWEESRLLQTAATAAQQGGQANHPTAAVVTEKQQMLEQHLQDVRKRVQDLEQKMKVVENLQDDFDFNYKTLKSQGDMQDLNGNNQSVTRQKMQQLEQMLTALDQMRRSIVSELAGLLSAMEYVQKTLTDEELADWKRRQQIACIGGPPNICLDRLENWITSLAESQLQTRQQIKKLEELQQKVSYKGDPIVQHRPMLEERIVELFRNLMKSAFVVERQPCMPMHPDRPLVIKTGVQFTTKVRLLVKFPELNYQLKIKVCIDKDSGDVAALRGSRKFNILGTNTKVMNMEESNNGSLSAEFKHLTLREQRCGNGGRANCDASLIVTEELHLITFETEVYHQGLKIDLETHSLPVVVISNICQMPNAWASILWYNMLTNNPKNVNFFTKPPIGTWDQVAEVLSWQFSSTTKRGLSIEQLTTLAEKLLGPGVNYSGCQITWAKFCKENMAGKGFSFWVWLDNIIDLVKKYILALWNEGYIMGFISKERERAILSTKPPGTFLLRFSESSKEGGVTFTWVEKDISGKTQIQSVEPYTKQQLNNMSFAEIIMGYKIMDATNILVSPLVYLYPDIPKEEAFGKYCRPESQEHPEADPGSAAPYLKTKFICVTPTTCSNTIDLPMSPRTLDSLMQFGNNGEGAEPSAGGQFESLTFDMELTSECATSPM
T1 sequence (P42225 whole entry): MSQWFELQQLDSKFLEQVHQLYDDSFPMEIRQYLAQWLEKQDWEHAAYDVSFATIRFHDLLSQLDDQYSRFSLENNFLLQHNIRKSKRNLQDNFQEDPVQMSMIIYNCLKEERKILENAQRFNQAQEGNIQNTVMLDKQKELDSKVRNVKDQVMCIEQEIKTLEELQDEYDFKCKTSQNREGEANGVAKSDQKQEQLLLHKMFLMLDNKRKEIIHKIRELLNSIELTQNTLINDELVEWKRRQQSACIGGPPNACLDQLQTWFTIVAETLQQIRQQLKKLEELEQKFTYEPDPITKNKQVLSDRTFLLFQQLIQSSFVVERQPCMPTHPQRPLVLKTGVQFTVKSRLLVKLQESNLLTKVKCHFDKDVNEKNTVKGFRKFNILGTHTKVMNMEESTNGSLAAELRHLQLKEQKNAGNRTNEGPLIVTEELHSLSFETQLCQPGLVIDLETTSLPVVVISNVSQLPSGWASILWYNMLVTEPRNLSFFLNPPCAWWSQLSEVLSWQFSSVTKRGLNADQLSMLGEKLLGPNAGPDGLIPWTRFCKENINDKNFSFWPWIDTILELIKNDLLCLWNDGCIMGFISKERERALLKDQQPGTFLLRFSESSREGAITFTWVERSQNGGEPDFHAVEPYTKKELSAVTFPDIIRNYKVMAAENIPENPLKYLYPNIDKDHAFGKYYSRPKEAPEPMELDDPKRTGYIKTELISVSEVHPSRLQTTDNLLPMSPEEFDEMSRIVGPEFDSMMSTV

O=C(N/N=C/c1ccc([N+](=O)[O-])o1)c1ccc(O)cc1 [nifuroxazide, Benzoic acid, 4-hydroxy-, [(5-nitro-2-furanyl)metylene]hydrazide]
Cell survival [1]: caused cell mortality in all cell lines at higher doses
HrR3 induced upregulation of STAT1 phosphorylation (STAT1): effectively suppressed
phosphorylation of STAT1 (STAT1; NF alone): dose dependent inhibition
Tumor volume was reduced (subcutaneous U87 tumor; 1 mg/kg nifuroxazide): around 25%
Tumor volume was reduced (subcutaneous U87 tumor; 50 mg/kg nifuroxazide): ~60%
HrR3 induced upregulation of STAT3 phosphorylation (STAT3; 24 hours): effectively suppressed
STAT3 phosphorylation (STAT3; HrR3 MOI of 5, 6 hours): dose dependent STAT1 and STAT3 phosphorylation reduction
phosphorylation of STAT3 (STAT3; NF alone, 24 hours): dose dependent inhibition
pIC50 (U373 cells): ~4.64
